For three compounds, viability, T/C, outcome and IC50 results are on record in PubChem BioAssay AID2060605 (Molecular Pharmacology Branch, DTP, NCI, 2025).

Where “and” joins values, the source holds several entries; their conditions need not be identical. Identical values can stand only once. Calls of active or inactive are those of the source. Rule for the calls: active = viability on the fitted dose curve at most 10% of control; inactive = the rest.

This test relates to 947758-054-R-J2-PDC spheroid growth, percent test/control. Briefly: Anticancer human tumor 947758-054-R-J2-PDC patient-derived colon adenocarcinoma cell line growth inhibition [CLK]. The settings on record: spheroids with HUVEC and MSC; for viability, T/C: stronger effect = lower value. An excerpt:
A high-throughput screen of multi-cell type tumor spheroids was designed to identify active combinations of […] and targeted small molecules. Complex spheroids include a stromal component modeled by human endothelial cells (HUVEC) and fibroblasts modeled by human mesenchymal stem cells (MSCs). The concentration ranges selected for each drug and investigational agent were based upon clinically achievable concentrations if the clinical Cmax of the agent was known.
Compounds. The drugs and investigational agents: cirtuvivint (SM08502; NSC835563), CC-671 (NSC850746), vemurafenib (NSC761431), tapotoclax (NSC804041), sotorasib (NSC818433), adagrasib (NSC831453), MRTX-1133 (NSC836407), BAY2416964 (NSC825713), copanlisib (NSC816437), inavolisib (NSC800729), abemaciclib (NSC768073), osimertinib (NSC779217), entinostat (NSC756642), eltanexor (KPT-8602, NSC794443), venetoclax (NSC766270), ceralasertib (NSC777638), bortezomib (NSC756655), olaparib (NSC753686), talazoparib (NSC767125), alisertib (NSC759677), peposertib (NSC802822), gemcitabine (NSC613327), 5-fluorouracil (NSC19893), SN-38 (NSC673596), oxaliplatin (NSC266046), paclitaxel (NSC125973), and doxorubicin (NSC123127), were obtained from the National Cancer Institute (NCI) Developmental Therapeutics Program Chemical Repository. The FDA-approved anticancer drug set is available from the Developmental Therapeutics Program at https://dtp.cancer.gov/organization/dscb/obtaining/available plates.htm. […] The stock solutions were prepared in dimethyl sulfoxide (DMSO, Sigma-Aldrich, St. Louis, MO, cat. D2650), except for the platinum complexes which were prepared in saline (Quality Biological, Gaithersburg, MD, cat. 114-055-101), at 800-fold the tested concentration and stored at -70 degrees C prior to their use. All drugs and investigational agents were tested over a range starting from a high concentration at or near the clinical Cmax and decreasing in half-log increments. If the clinical Cmax for an agent had not been determined, the highest concentration tested was 10 microM.
Cell Culture. All cells were maintained in an incubator at 37 degrees C and 5% CO2 with 95% humidity. The PDC lines were cultured according to standard operating procedures established by the NCI PDMR. Briefly, all PDCs were thawed and cultured in Matrigel-coated flasks prepared with a working solution of 1X Ham's F-12 nutrient mix, without supplementation (Invitrogen, Waltham, MA, cat. 11765054), 100 U/mL penicillin-streptomycin (Invitrogen, cat. 15140122), and 2.5% Matrigel (Corning Inc., Corning, NY, cat. 354248) for the first three passages. The 947758-054-R-J2-PDC line was cultured in 6B/Colon 1A media, which includes advanced DMEM/F-12 (Thermo Fisher Scientific, cat. 12634028), 10 mM HEPES (Thermo Fisher Scientific, cat. 15630080), 1X GlutaMAX supplement (Thermo Fisher Scientific, cat. 35050061), 0.1 mg/mL primocin (InvivoGen, cat. ant-pm-2), 10% defined fetal bovine serum, heat inactivated (HyClone Laboratories Inc., cat. SH30070.03HI), 1.25 mM N-Acetyl-L-cysteine (Sigma-Aldrich, cat. A9165), 10 mM nicotinamide (Sigma-Aldrich, cat. N0636), 1X B-27 supplement (Thermo Fisher Scientific, cat. 17504044), 1X N-2 supplement (Thermo Fisher Scientific, cat. 17502048), and 10 microM Y-27632 dihydrochloride (Tocris Bioscience, cat. 1254). The 876862-298-R-J1-PDC was cultured in 6E media, which includes all 6B/Colon 1A media components plus 50% L-WRN conditioned media (ATCC, cat. CRL-3276), 50 ng/mL recombinant human EGF recombinant protein (hEGF; Thermo Fisher Scientific, cat. PHG0311), 10 ng/mL recombinant human fibroblast growth factor 10 (hGFG-10; PeproTech, cat. 100-26), 1 ng/mL recombinant human fibroblast growth factor 2 (hFGF-2; PeproTech, cat. 100-18B), and 1 µM prostaglandin E2 (PGE2; Tocris, cat. 2296). The 227483-062-R1-J1-PDC line was cultured in Panc media, containing all 6E components except hFGF-2, with the addition of 500 nM SB-431542 (Selleckchem, cat. S1067) and 10 nM gastrin (Tocris, cat. 3006). […]
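Note: spheroids exposed to compounds for one week before readout.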
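Throughout, for viability, T/C: 100% = DMSO vehicle control wells.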

Usually viability, T/C stands for the ratio of treated to control. As usually defined, the IC50 is the midpoint of a concentration-inhibition curve. Take `CC1COCCN1c1cc(C2(S(C)(=N)=O)CC2)nc(-c2ccnc3[nH]ccc23)n1` (centres undefined): the viability, T/C is, setting by setting: (compound 0.0316 µM) 110% and 128%; (compound 0.1 µM) 92.4% and 100%; (compound 0.316 µM) 79.1% and 102%; (compound 1 µM) 111% and 108%; (compound 3.16 µM) 202%; (compound 10 µM) 26.1% and 28.4%. For the same compound, the outcome (compound 3.16 µM) was inactive. In addition, for the setting “curve of compound”, the IC50 was 7430 nM and 6370 nM.
For `COc1c(OCCCN2CCOCC2)ccc2c3n(c(=NC(=O)c4cnc(N)nc4)nc12)CCN3` + CNC(=O)c1ccc(Nc2nc(OC3CCCC3)c3c(-c4ccc5nc(C)oc5c4)c[nH]c3n2)c(OC)c1, the IC50 reads like this: (curve of first compound, second compound 0.0316 µM) 18.1 nM; (curve of first compound, second compound 0.1 µM) 14.7 nM; (curve of first compound, second compound 0.316 µM) 7.81 nM; (curve of first compound, second compound 1 µM) < 3.16 nM; (curve of first compound, second compound 3.16 µM) < 3.16 nM; (curve of first compound, second compound 10 µM) < 3.16 nM. The viability, T/C is 77% (second compound 0.0316 µM, first compound 0.00316 µM); 53.6% (second compound 0.0316 µM, first compound 0.01 µM); 39.2% (second compound 0.0316 µM, first compound 0.0316 µM); 37.2% (second compound 0.0316 µM, first compound 0.1 µM); 25.1% (second compound 0.0316 µM, first compound 0.316 µM); 13.4% (second compound 0.0316 µM, first compound 1 µM). The viability, T/C is, setting by setting: (second compound 0.1 µM, first compound 0.00316 µM) 69.9%; (second compound 0.1 µM, first compound 0.01 µM) 60.6%; (second compound 0.1 µM, first compound 0.0316 µM) 30.2%; (second compound 0.1 µM, first compound 0.1 µM) 22.2%; (second compound 0.1 µM, first compound 0.316 µM) 14.9%; (second compound 0.1 µM, first compound 1 µM) 10.6%. Further, the viability, T/C was 71.4% (second compound 0.316 µM, first compound 0.00316 µM); 44.6% (second compound 0.316 µM, first compound 0.01 µM); 21.1% (second compound 0.316 µM, first compound 0.0316 µM); 11.8% (second compound 0.316 µM, first compound 0.1 µM); 8.06% (second compound 0.316 µM, first compound 0.316 µM); 3.94% (second compound 0.316 µM, first compound 1 µM). For the same compound, the viability, T/C runs as follows: (second compound 1 µM, first compound 0.00316 µM) 49.8%; (second compound 1 µM, first compound 0.01 µM) 30.4%; (second compound 1 µM, first compound 0.0316 µM) 10.1%; (second compound 1 µM, first compound 0.1 µM) 4.35%; (second compound 1 µM, first compound 0.316 µM) 3.7%; (second compound 1 µM, first compound 1 µM) 2.28%. The viability, T/C is 43.2% (second compound 3.16 µM, first compound 0.00316 µM); 17.7% (second compound 3.16 µM, first compound 0.01 µM); 9.11% (second compound 3.16 µM, first compound 0.0316 µM); 3.98% (second compound 3.16 µM, first compound 0.1 µM); 3.84% (second compound 3.16 µM, first compound 0.316 µM); 2.88% (second compound 3.16 µM, first compound 1 µM). Also, the viability, T/C was 25.4% (second compound 10 µM, first compound 0.00316 µM); 15.1% (second compound 10 µM, first compound 0.01 µM); 8.44% (second compound 10 µM, first compound 0.0316 µM); 4.43% (second compound 10 µM, first compound 0.1 µM); 2.95% (second compound 10 µM, first compound 0.316 µM); 2.09% (second compound 10 µM, first compound 1 µM).
With `CNC(=O)c1ccc(Nc2nc(OC3CCCC3)c3c(-c4ccc5nc(C)oc5c4)c[nH]c3n2)c(OC)c1`, the viability, T/C was 62.2% [middle of 12 runs] (compound 0.0316 µM), 56.2% [middle of 12 runs] (compound 1 µM), 45.1% [middle of 12 runs] (compound 3.16 µM) and 36.8% [middle of 12 runs] (compound 10 µM).
